Reference: patent US9562060B2, “Heterocyclic pyridone compound, and intermediate, preparation method and use thereof” (SHANGHAI HUILUN LIFE SCIENCE & TECHNOLOGY CO., LTD, priority 2011, dated 2017)
Like-named read-outs stand apart in the source and are kept apart here.

Tests used:
[1] = target: T1, c-Met kinase (Homo sapiens, UniProt P08581); experiment: Inhibitory activity of compound to c-Met kinases (Z'-LYTE kinase assay kit); format: biochemical; settings: Tyr 6 substrate peptide, read-out: Strength of activity (inhibition on c-Met kinase, IC50)
T1 construct: purchased Invitrogen PV3143
Method: The inhibitory activity of the compound to c-Met kinases in vitro is determined through the following method.
The method described below can be used to determine the inhibiting capacity of the compound of the present invention on the c-Met kinase activity, and the inhibiting capacity is represented by IC50. The half inhibitory concentration IC50 (a concentration of the compound for inhibiting the enzyme activity to 50%) of the compound is obtained by: mixing and reacting a certain amount of kinase with a specific substrate and different concentrations of test compound, and then labeling the substrate with an anti-phosphotyrosine antibody and a […], and finally quantitatively determining the c-Met kinase activity through a time-resolved fluorescence method.
The specific experiment is implemented by using a Z′-LYTE kinase assay kit (Invitrogen, item PV4122). First, the test compound is diluted into 8 different concentrations from 100 μM at an interval of 1:5 with an ATP solution (Invitrogen, item PV3227); 5 μL 2×c-Met (Invitrogen, item PV3143) and 2×Z′-LYTE Tyr 6 substrate peptide are respectively taken up, and added to a 384-well microtiter plate, 5 μL diluted different concentrations of test compound are added in sequence, and the lid is closed. The microtiter plate is incubated for 60 min at room temperature (20° C. to 25° C.); and then 5 μL […] is added, and the lid is closed. The microtiter plate is incubated for 60 min at room temperature (20° C. to 25° C.); and then 5 μL termination reagent is added to the reaction well, to terminate the reaction. Finally, the fluorescence intensity (OD400) of each well is determined in a fluorescence analyzer (excitation wavelength: 400 nm). The inhibition rate is calculated, and the half inhibitory concentration (IC50) of the compound is calculated according to the inhibition rates of different concentrations.
For a negative control group, except that test compound (replaced by 5 μL ATP solution) is not added, all the other reagents are added. In addition, an enzyme-free control group (that is, blank group) is set.

[2] = system: Human gastric cancer cell SNU-5; experiment: Inhibition of in vitro proliferation of human gastric cancer cell SNU-5 (SRB); format: cell-based; settings: SNU-5 cells, 72-hr agent treatment, read-out: Strength of activity (inhibition on SNU-5, IC50)
Method: Human gastric cancer cells SNU-5 are cultured in an IMDM medium containing 20% fetal bovine serum, and the culture conditions are 37° C. and 5% CO2. Tumor cells are inoculated in a 96-well plate, and after 24-hr sidewall growth, 9 different concentrations of (1 to 30000 nM) an agent are added, after 72-hr agent treatment, the medium is discarded, the cells are fixed by cold trichloroacetic acid, and then dyed with a sulforhodamine B (SRB) solution. Unbound SRB is washed off, and SRB bound with protein was dissolved with Tris, the OD is determined at a wavelength of 510 nm by a microplate reader, and the cell growth inhibition rate is calculated according to the following equation: Inhibition rate=(OD of control well-OD of administered well)/OD of control well×100%
According to the inhibition rates of different concentrations, the half inhibitory concentration IC50 is calculated by using a Logit method.

T1 sequence (P08581 25-1390): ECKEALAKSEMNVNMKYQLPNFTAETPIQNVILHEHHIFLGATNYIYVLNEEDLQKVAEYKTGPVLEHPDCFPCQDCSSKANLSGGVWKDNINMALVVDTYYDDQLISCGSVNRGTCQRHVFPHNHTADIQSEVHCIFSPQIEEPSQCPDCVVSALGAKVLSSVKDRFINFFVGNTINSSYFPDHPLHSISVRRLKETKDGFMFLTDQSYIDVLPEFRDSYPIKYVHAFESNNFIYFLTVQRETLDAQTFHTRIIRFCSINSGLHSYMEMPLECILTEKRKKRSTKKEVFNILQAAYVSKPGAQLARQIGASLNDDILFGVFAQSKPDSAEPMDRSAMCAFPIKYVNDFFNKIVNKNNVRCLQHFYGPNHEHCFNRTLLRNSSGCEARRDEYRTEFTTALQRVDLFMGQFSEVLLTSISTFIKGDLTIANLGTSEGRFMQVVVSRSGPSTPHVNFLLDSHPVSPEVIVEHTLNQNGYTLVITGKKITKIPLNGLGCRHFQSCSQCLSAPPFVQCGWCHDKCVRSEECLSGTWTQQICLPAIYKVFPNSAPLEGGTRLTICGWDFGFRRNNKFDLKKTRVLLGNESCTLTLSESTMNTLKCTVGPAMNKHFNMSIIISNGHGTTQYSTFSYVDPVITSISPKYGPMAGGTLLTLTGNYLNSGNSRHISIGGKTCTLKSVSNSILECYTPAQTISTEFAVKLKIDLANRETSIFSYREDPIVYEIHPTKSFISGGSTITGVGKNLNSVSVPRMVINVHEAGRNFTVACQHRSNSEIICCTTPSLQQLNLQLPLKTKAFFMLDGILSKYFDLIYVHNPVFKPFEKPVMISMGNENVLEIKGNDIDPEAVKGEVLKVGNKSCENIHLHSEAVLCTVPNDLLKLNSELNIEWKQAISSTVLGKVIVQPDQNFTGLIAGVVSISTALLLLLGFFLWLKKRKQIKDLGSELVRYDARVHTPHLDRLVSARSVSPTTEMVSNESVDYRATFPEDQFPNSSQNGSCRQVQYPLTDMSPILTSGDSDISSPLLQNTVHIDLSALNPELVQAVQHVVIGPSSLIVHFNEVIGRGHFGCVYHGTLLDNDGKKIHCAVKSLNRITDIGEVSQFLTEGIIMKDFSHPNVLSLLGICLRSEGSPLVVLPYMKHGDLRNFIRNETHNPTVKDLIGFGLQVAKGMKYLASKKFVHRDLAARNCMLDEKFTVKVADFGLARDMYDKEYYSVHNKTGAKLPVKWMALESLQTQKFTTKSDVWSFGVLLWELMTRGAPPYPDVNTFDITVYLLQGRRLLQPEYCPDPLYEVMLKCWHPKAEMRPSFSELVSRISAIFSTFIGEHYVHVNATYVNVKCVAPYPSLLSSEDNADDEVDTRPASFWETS

Row | IC50 [1] [µM] | IC50 [2] [µM] | IC50 ([2]; Homo sapiens) [µM] | SMILES
1 | 0.01 to 0.1 | 0.1 to 0.5 | – | Cn1cnc(-c2cc3nccc(Oc4ccc(NC(=O)c5cc6ncsc6n(-c6ccc(F)cc6)c5=O)cc4F)c3s2)c1 [Embodiment 6]
2 | 0.01 to 0.1 | – | 0.1 to 0.5 | CCn1cnc(-c2cc3nccc(Oc4ccc(NC(=O)c5cc6ncsc6n(-c6ccc(F)cc6)c5=O)cc4F)c3s2)c1 [Embodiment 7]
3 | 0.01 to 0.1 | – | 0.5 to 5 | Cc1n[nH]c2nccc(Oc3ccc(NC(=O)c4cc5ncsc5n(-c5ccc(F)cc5)c4=O)cc3F)c12 [Embodiment 8]
4 | < 0.01 | 0.1 to 0.5 | – | O=C(Nc1ccc(Oc2ccnc(NC(=O)N3CCCC3)c2)c(F)c1)c1cc2ncsc2n(-c2ccc(F)cc2)c1=O [Embodiment 9]
5 | 0.1 to 1 | – | < 0.1 | CN1CCN(C(=O)Nc2cc(Oc3ccc(NC(=O)c4cc5ncsc5n(-c5ccc(F)cc5)c4=O)cc3F)ccn2)CC1 [Embodiment 10]
6 | 0.01 to 0.1 | – | – | O=C(Nc1ccc(Oc2ccnc(NC(=O)N3CCOCC3)c2)c(F)c1)c1cc2ncsc2n(-c2ccc(F)cc2)c1=O [Embodiment 11]
7 | 0.01 to 0.1 | – | 0.1 to 0.5 | O=C(Nc1ccc(Oc2ccnc(NC(=O)N3CCC(O)CC3)c2)c(F)c1)c1cc2ncsc2n(-c2ccc(F)cc2)c1=O [Embodiment 12]
8 | 0.01 to 0.1 | – | – | CN(C)CC1CCN(C(=O)Nc2cc(Oc3ccc(NC(=O)c4cc5ncsc5n(-c5ccc(F)cc5)c4=O)cc3F)ccn2)CC1 [Embodiment 13]
9 | 0.01 to 0.1 | – | – | CN(CCO)C(=O)Nc1cc(Oc2ccc(NC(=O)c3cc4ncsc4n(-c4ccc(F)cc4)c3=O)cc2F)ccn1 [Embodiment 14]
10 | 0.01 to 0.1 | – | – | CN(C)C/C=C/C(=O)Nc1cc(Oc2ccc(NC(=O)c3cc4ncsc4n(-c4ccc(F)cc4)c3=O)cc2F)ccn1 [Embodiment 15]
11 | 0.1 to 1 | – | 0.1 to 0.5 | CN1CCN(C(=O)Nc2nccc(Oc3ccc(NC(=O)c4cc5ncsc5n(-c5ccc(F)cc5)c4=O)cc3F)c2Cl)CC1 [Embodiment 16]
12 | < 0.01 | – | 0.1 to 0.5 | O=C(Nc1ccc(Oc2ccnc(NC(=O)N3CCOCC3)c2Cl)c(F)c1)c1cc2ncsc2n(-c2ccc(F)cc2)c1=O [Embodiment 17]
13 | 0.1 to 1 | – | 0.5 to 5 | Nc1cc(Oc2ccc(NC(=O)c3cc4ncsc4n(-c4ccccc4CCO)c3=O)cc2F)ccn1 [Embodiment 18]
14 | < 0.01 | – | – | Nc1nccc(Oc2ccc(NC(=O)c3cc4ncsc4n(-c4ccccc4CCO)c3=O)cc2F)c1Cl [Embodiment 19]
15 | 0.1 to 1 | – | < 0.1 | COc1ccc2c(Oc3ccc(NC(=O)c4cc5ncsc5n(-c5ccccc5CCO)c4=O)cc3F)ccnc2c1 [Embodiment 20]
16 | 0.01 to 0.1 | – | < 0.1 | O=C(Nc1ccc(Oc2ccnc3[nH]ccc23)c(F)c1)c1cc2ncsc2n(-c2ccccc2CCO)c1=O [Embodiment 21]
17 | > 1 | – | 0.5 to 5 | COc1cc2c(Oc3ccc(NC(=O)c4cc5ncsc5n(-c5ccccc5CCO)c4=O)cc3F)ccnc2cc1OCCCN1CCOCC1 [Embodiment 22]
18 | 0.01 to 0.1 | – | 0.1 to 0.5 | CN(C)c1nc2cc(C(=O)Nc3ccc(Oc4ccnc(N)c4Cl)c(F)c3)c(=O)n(-c3ccc(F)cc3)c2s1 [Embodiment 23]
19 | < 0.01 | – | 0.1 to 0.5 | CN(C)c1nc2cc(C(=O)Nc3ccc(Oc4ccnc(N)c4)c(F)c3)c(=O)n(-c3ccc(F)cc3)c2s1 [Embodiment 24]
20 | 0.1 to 1 | – | 0.5 to 5 | COc1ccc2c(Oc3ccc(NC(=O)c4cc5nc(N(C)C)sc5n(-c5ccc(F)cc5)c4=O)cc3F)ccnc2c1 [Embodiment 25]
21 | 0.01 to 0.1 | – | 0.1 to 0.5 | CN(C)c1nc2cc(C(=O)Nc3ccc(Oc4ccnc5[nH]ccc45)c(F)c3)c(=O)n(-c3ccc(F)cc3)c2s1 [Embodiment 26]
22 | 0.01 to 0.1 | – | – | COc1cc2c(Oc3ccc(NC(=O)c4cc5nc(N(C)C)sc5n(-c5ccc(F)cc5)c4=O)cc3F)ccnc2cc1OCCCN1CCOCC1 [Embodiment 27]
23 | 0.1 to 1 | – | 0.5 to 5 | Cn1ncc2cc(C(=O)Nc3ccc(Oc4ccnc(N)c4)c(F)c3)c(=O)n(-c3ccc(F)cc3)c21 [Embodiment 28]
24 | < 0.01 | – | < 0.1 | Cn1ncc2cc(C(=O)Nc3ccc(Oc4ccnc(N)c4Cl)c(F)c3)c(=O)n(-c3ccc(F)cc3)c21 [Embodiment 29]

Row | IC50 [1] [µM] | IC50 [2] [µM] | IC50 ([2]; Homo sapiens) [µM] | SMILES
25 | 0.1 to 1 | – | – | COc1ccc2c(Oc3ccc(NC(=O)c4cc5cnn(C)c5n(-c5ccc(F)cc5)c4=O)cc3F)ccnc2c1 [Embodiment 30]
26 | 0.01 to 0.1 | – | 0.1 to 0.5 | Cn1ncc2cc(C(=O)Nc3ccc(Oc4ccnc5[nH]ccc45)c(F)c3)c(=O)n(-c3ccc(F)cc3)c21 [Embodiment 31]
27 | 0.1 to 1 | – | 0.1 to 0.5 | COc1cc2c(Oc3ccc(NC(=O)c4cc5cnn(C)c5n(-c5ccc(F)cc5)c4=O)cc3F)ccnc2cc1OCCCN1CCOCC1 [Embodiment 32]
28 | 0.01 to 0.1 | – | – | Cn1cnc2cc(C(=O)Nc3ccc(Oc4ccnc(N)c4Cl)c(F)c3)c(=O)n(-c3ccc(F)cc3)c21 [Embodiment 33]
29 | 0.1 to 1 | – | – | Cn1cnc2cc(C(=O)Nc3ccc(Oc4ccnc(N)c4)c(F)c3)c(=O)n(-c3ccc(F)cc3)c21 [Embodiment 35]
30 | 0.01 to 0.1 | – | 0.5 to 5 | Cn1cnc2cc(C(=O)Nc3ccc(Oc4ccnc5[nH]ccc45)c(F)c3)c(=O)n(-c3ccc(F)cc3)c21 [Embodiment 36]
31 | < 0.01 | – | 0.1 to 0.5 | COc1cc2c(Oc3ccc(NC(=O)c4cc5ncn(C)c5n(-c5ccc(F)cc5)c4=O)cc3F)ccnc2cc1OCCCN1CCOCC1 [Embodiment 37]
32 | 0.1 to 1 | – | 0.5 to 5 | CN1CCOc2cc(C(=O)Nc3ccc(Oc4ccnc(N)c4Cl)c(F)c3)c(=O)n(-c3ccc(F)cc3)c21 [Embodiment 38]
33 | 0.01 to 0.1 | – | – | CN1CCOc2cc(C(=O)Nc3ccc(Oc4ccnc(N)c4)c(F)c3)c(=O)n(-c3ccc(F)cc3)c21 [Embodiment 39]
34 | < 0.01 | – | – | COc1ccc2c(Oc3ccc(NC(=O)c4cc5c(n(-c6ccc(F)cc6)c4=O)N(C)CCO5)cc3F)ccnc2c1 [Embodiment 40]
35 | 0.1 to 1 | – | – | COc1cc2c(Oc3ccc(NC(=O)c4cc5c(n(-c6ccc(F)cc6)c4=O)N(C)CCO5)cc3F)ccnc2cc1OCCCN1CCOCC1 [Embodiment 42]
36 | 0.01 to 0.1 | – | – | CN1CCOc2c1cc(C(=O)Nc1ccc(Oc3ccnc(N)c3)c(F)c1)c(=O)n2-c1ccc(F)cc1 [Embodiment 43]
37 | 0.1 to 1 | – | – | COc1cc2c(Oc3ccc(NC(=O)c4cc5c(n(-c6ccc(F)cc6)c4=O)OCCN5C)cc3F)ccnc2cc1OCCCN1CCOCC1 [Embodiment 45]
38 | 0.01 to 0.1 | – | – | CN1CCOc2c1cc(C(=O)Nc1ccc(Oc3ccnc(N)c3Cl)c(F)c1)c(=O)n2-c1ccc(F)cc1 [Embodiment 46]
39 | < 0.01 | – | – | COc1ccc2c(Oc3ccc(NC(=O)c4cc5c(n(-c6ccc(F)cc6)c4=O)OCCN5C)cc3F)ccnc2c1 [Embodiment 47]
40 | 0.1 to 1 | – | – | CCOc1c(C(=O)Nc2ccc(Oc3ccnc(N)c3)c(F)c2)c(=O)n(-c2ccc(F)cc2)c2scnc12 [Embodiment 48]
41 | < 0.01 | – | – | CCOc1c(C(=O)Nc2ccc(Oc3ccnc(N)c3Cl)c(F)c2)c(=O)n(-c2ccc(F)cc2)c2scnc12 [Embodiment 49]
42 | 0.01 to 0.1 | – | – | CCOc1c(C(=O)Nc2ccc(Oc3ccnc4cc(OC)ccc34)c(F)c2)c(=O)n(-c2ccc(F)cc2)c2scnc12 [Embodiment 50]
43 | 0.1 to 1 | 0.1 to 0.5 | – | CCOc1c(C(=O)Nc2ccc(Oc3ccnc4[nH]ccc34)c(F)c2)c(=O)n(-c2ccc(F)cc2)c2scnc12 [Embodiment 51]
44 | 0.01 to 0.1 | – | – | CN(C)c1c(C(=O)Nc2ccc(Oc3ccnc(N)c3)c(F)c2)c(=O)n(-c2ccc(F)cc2)c2scnc12 [Embodiment 52]
45 | < 0.01 | – | – | CN(C)c1c(C(=O)Nc2ccc(Oc3ccnc(N)c3Cl)c(F)c2)c(=O)n(-c2ccc(F)cc2)c2scnc12 [Embodiment 53]
46 | 0.01 to 0.1 | – | – | CN(C)c1c(C(=O)Nc2ccc(Oc3ccnc4[nH]ccc34)c(F)c2)c(=O)n(-c2ccc(F)cc2)c2scnc12 [Embodiment 55]
47 | 0.1 to 1 | – | – | CN(CCO)c1c(C(=O)Nc2ccc(Oc3ccnc(N)c3Cl)c(F)c2)c(=O)n(-c2ccc(F)cc2)c2scnc12 [Embodiment 57]
48 | 0.1 to 1 | – | – | CN(CCO)c1c(C(=O)Nc2ccc(Oc3ccnc4[nH]ccc34)c(F)c2)c(=O)n(-c2ccc(F)cc2)c2scnc12 [Embodiment 59]
